The test system of one assay is Citratplasma. The assay can be described thus: Activated partial thromboplastin time (APTT) in citrate plasma. In kind it is biochemical. Particulars: time as difference to control (control ca. 28-35 s); for APTT 1000: 1000 µM in final volume, stopped after 5 min (>300). As to the method:
(§1) Neun Teile frisches Blut gesunder Spender werden mit einem Teil Natriumcitratlösung (0.11 Mol/l) gemischt und bei ca. 3000 U/min 10 Minuten bei Raumtemperatur zentrifugiert. Das Plasma wird abpipettiert und kann bei Raumtemperatur ca. 8 h aufbewahrt werden.
100 µl Citratplasma und 100 µl APTT-Reagenz (Diagnostica Stago / Boehringer Mannheim GmbH; enthält Lyophilisat Cephalin mit mikrokristallinem Kieselguraktivator) werden zusammen mit 10 µl Dimethylsulfoxid (DMSO) oder 10 µl einer Lösung der Wirksubstanz in DMSO in einem Kugelkoagulometer (KC10 der Fa. Amelung) 3 Minuten bei 37°C inkubiert. Mit Zugabe von 100 µl 0.025 M Calciumchlorid-Lösung wird eine Stoppuhr gestartet und der Zeitpunkt bis zum Eintritt der Gerinnung bestimmt. Die APTT beträgt bei den Kontrollmessungen ca. 28 -35 Sekunden und wird durch Wirksubstanzen verlängert. Sofern bei den Messungen nach 5 Minuten keine Gerinnung eintrat, wurde der Versuch gestoppt (>300).
In Tabelle 1 sind die gemessenen APTT-Zeiten in Sekunden als Differenz zur Kontrolle angegeben. Die Konzentrationen der Wirksubstanzen betrugen im Endvolumen 1000 µM (APTT 1000), 100 µM (APTT 100), 10 µM (APTT 10), 1 µM (APTT 1).

In the next assay the target is T1, Humanes α-Thrombin (Homo sapiens, UniProt P00734).
T1 construct: Humanes α-Thrombin; purchased Sigma
The experiment in a line: Inhibition constants (Ki), chromogenic substrate S-2238, thrombin. The assay is classed as biochemical. Particulars: pH 7.5, 25°C, 0.1 M phosphate buffer. The procedure:
(§2) Die kinetischen Messungen wurden in 0.2 M Kochsalz und 0.5 % Polyethylenglycol 6000 enthaltendem 0.1 M Phosphatpuffer (Herstellung siehe unten) bei pH 7.5 und 25°C in Polystyrol-Halbmikroküvetten in einem Gesamtvolumen von 1 mi durchgeführt. Die Reaktionen wurden durch Zugabe von Enzym zu vorinkubierten Lösungen, die entweder Dimethylsulfoxid (Kontrolle) oder Lösungen der Testsubstanz in DMSO (Inhibitor-Stocklösungen: 10 mM in DMSO) enthielten, gestartet. Die Zunahme der Extinktion bei 405 nm als Folge der Freisetzung von 4-Nitroanilin aus dem Substrat wurde photometrisch über einen Zeitraum von 12 Minuten verfolgt. Im Abstand von 20 Sekunden wurden Meßwerte (Extinktion vs. Zeit) ermittelt und diese Daten per Computer gespeichert.
(§3) Zur Bestimmung der Inhibitionskonstanten Ki wurde wie folgt vorgegangen: Die Geschwindigkeiten V0 (Extinktionsänderung pro Sekunde; Messungen ohne Inhibitor) und Vi (Extinktionsänderung pro Sekunde; Messungen mit Inhibitor) wurden durch lineare Regression bestimmt, wobei nur die Meßpunkte berücksichtigt wurden, bei der sich die Substratkonzentration um weniger als 15% verringerte. Aus einer Meßreihe (konstante Inhibitorkonzentration, variable Substratkonzentrationen) bestimmte man KM und VMAX durch nichtlinearen Fit auf die Gleichung V =(Vmax * [S])/([S] + KM) [formula] […]

For the next assay, the target named is T2, humanem Faktor Xa (Homo sapiens, UniProt P00742).
T2 construct: humanem Faktor Xa; purchased Boehringer Mannheim GmbH
T2 sequence (P00742 235-488 limits assumed): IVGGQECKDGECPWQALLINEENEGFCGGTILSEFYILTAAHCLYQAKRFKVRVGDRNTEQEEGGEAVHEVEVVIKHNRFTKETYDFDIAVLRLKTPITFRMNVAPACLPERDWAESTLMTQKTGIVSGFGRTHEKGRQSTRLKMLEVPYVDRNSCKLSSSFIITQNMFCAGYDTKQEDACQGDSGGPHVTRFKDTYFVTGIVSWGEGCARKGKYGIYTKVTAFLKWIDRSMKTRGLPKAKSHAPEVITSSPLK
T2 sequence (P00742 41-179 partner limits assumed): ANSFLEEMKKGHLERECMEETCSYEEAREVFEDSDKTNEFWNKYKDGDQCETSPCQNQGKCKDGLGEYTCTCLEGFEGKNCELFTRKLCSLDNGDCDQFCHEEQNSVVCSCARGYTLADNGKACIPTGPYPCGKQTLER
The assay can be described thus: Inhibition constants (Ki), chromogenic substrate Chromozym X, FXa. Particulars: pH 7.5, 25°C, 0.1 M phosphate buffer. In kind it is biochemical. The procedure:
as §2, §3

In another assay the test system is Pferdethrombin. The assay can be described thus: Thrombin time in citrate plasma. In kind it is biochemical, Pferd. Particulars: 500 µM in final volume; time as difference to control (control ca. 24 s). As to the method: as §1
200 µl Citratplasma werden in einem Kugelkoagulometer (KC10 der Fa. Amelung) 2 Minuten bei 37°C inkubiert. Zu 190 µl vortemperiertem Thrombin-Reagenz (Boehringer Mannheim GmbH; enthält ca. 3 U/ml Pferdethrombin und 0.0125 M Ca^++ gibt man 10 µl Dimethylsulfoxid (DMSO) oder eine Lösung der Wirksubstanz in DMSO. Mit Zugabe dieser 200 µl Lösung zum Plasma wird eine Stoppuhr gestartet und der Zeitpunkt bis zum Eintritt der Gerinnung bestimmt. Die Thrombinzeit beträgt bei den Kontrollmessungen ca. 24 Sekunden und wird durch Wirksubstanzen verlängert. Sofern bei den Messungen nach 5 Minuten keine Gerinnung eintrat, wurde der Versuch gestoppt (>300).
In Tabelle 1 sind die gemessenen Thrombinzeiten in Sekunden als Differenz zur Kontrolle angegeben. Die Konzentrationen der Wirksubstanzen betrugen im Endvolumen 500 µM (TT 500).

Assay [1] has as its target T3, bovines pankreatisches Trypsin (Bos taurus, UniProt P00760).
T3 construct: purchased Sigma; host or cells: bovine pancreas
T3 sequence (P00760 24-246): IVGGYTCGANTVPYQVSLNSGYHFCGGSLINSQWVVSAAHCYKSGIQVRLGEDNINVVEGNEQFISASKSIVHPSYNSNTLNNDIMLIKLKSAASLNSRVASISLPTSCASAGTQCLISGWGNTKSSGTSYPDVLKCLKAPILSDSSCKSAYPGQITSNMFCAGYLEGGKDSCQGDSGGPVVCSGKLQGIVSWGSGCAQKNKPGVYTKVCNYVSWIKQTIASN
The experiment in a line: Inhibition constants (Ki), chromogenic substrate S-2238, trypsin. Particulars: pH 7.5, 25°C, 0.1 M phosphate buffer. In kind it is biochemical, bovin. As to the method:
as §2, §3

The structures appear in SMILES notation.

As usually defined, the Ki is a measure of affinity in units of concentration, obtained from inhibition or displacement.

Consider `COC(=O)c1ccc(NC(=O)c2ccc3ccccc3c2)c(NC(=O)c2ccc(C(N)=S)cc2)c1` [Beispiel 1, 4-[(Naphthalin-2-carbonyl)-amino]-3-(4-thiocarbamoyl-benzoylamino)-benzoesäuremethylester], for which the “APTT 1000” value in the assay with Citratplasma was 1 s.

Take `NC(=S)c1ccc(C(=O)Nc2cc(C(=O)O)ccc2NC(=O)c2ccc3ccccc3c2)cc1` [Beispiel 2, 4-[(Naphthalin-2-carbonyl)-amino]-3-(4-thiocarbamoyl-benzoylamino)-benzoesäure]: the “APTT 1000” value in the assay with Citratplasma was determined as 9.4 s.

`COC(=O)c1ccc(NC(=O)c2ccc(OC)c(OC)c2)c(NC(=O)c2ccc(C(N)=S)cc2)c1` [Beispiel 5, 4-(3,4-Dimethoxy-benzoylamino)-3-(4-thiocarbamoyl-benzoylamino)-benzoesäuremethylester]: the “APTT 1000” value with Citratplasma was found to be 3.5 s.

For the molecule `COc1ccc(C(=O)Nc2ccccc2NC(=O)c2ccc(C(N)=S)cc2)cc1` [Beispiel 3, 2-(4-Methoxy-benzoylamino)-1-(4-thiocarbamoyl-benzoylamino)-benzol], the Ki at Humanes α-Thrombin is > 100 µM; at humanem Faktor Xa, 0.05 µM; in assay [1], > 100 µM. Further, the “TT 500” value in the assay on Pferdethrombin came out at 2.4 s. Moreover, the “APTT 1” value in the assay on Citratplasma (1 µM in final volume) was determined as 2.6 s. For the same molecule, the “APTT 10” value in the assay on Citratplasma (10 µM in final volume) came out at 8.4 s. Further, the “APTT 100” value in the assay with Citratplasma (100 µM in final volume) stood at 32.4 s. Also, in the assay on Citratplasma, the “APTT 1000” value was determined as 157.9 s.

In the case of `COC(=O)c1ccc(NC(=O)c2ccccc2C(=O)O)c(NC(=O)c2ccc(C(N)=S)cc2)c1` [Beispiel 6, 4-(2-Carboxy-benzoylamino)-3-(4-thiocarbamoyl-benzoylamino)-benzoesäuremethylester], the “APTT 1000” value in the assay on Citratplasma is 9.0 s.

On to `COC(=O)c1ccc(NC(=O)c2ccc(OC)cc2)c(NC(=O)c2ccc(C(N)=S)cc2)c1` [Beispiel 4, 4-(4-Methoxy-benzoylamino)-3-(4-thiocarbamoyl-benzoylamino)-benzoesäuremethylester], for which, in the assay on Citratplasma, the “APTT 1000” value worked out at 65.3 s.

Consider `COC(=O)c1ccc(NS(=O)(=O)c2ccc(OC)cc2)c(NC(=O)c2ccc(C(N)=S)cc2)c1` [Beispiel 7, 4-(4-Methoxy-benzolsulfonylamino)-3-(4-thiocarbamoyl-benzoylamino)-benzoesäuremethylester], for which the “APTT 1000” value in the assay on Citratplasma is 0.8 s.

For the molecule `COC(=O)c1ccc(NS(=O)(=O)c2ccc3ccccc3c2)c(NC(=O)c2ccc(C(N)=S)cc2)c1` [Beispiel 8, 4-(Naphthalin-2-sulfonylamino)-3-(4-thiocarbamoyl-benzoylamino)-benzoesäuremethylester], in the assay with Citratplasma, the “APTT 1000” value is -0.4 s.

As for `NC(=S)c1ccc(C(=O)Nc2ccccc2NC(=O)c2ccc(C(N)=S)cc2)cc1` [Beispiel 9, 1,2-Bis-(4-thiocarbamoyl-benzoylamino)-benzol], the “APTT 1000” value in the assay on Citratplasma was determined as 6.7 s.

`NC(=S)c1ccc(C(=O)Nc2cc(C(=O)O)ccc2NS(=O)(=O)c2ccc3ccccc3c2)cc1` [Beispiel 10, 4-(Naphthalin-2-sulfonylamino)-3-(4-thiocarbamoyl-benzoylamino)-benzoesäure]: the “APTT 1000” value with Citratplasma was determined as 0.7 s.

Values taken from patent publication EP0937711A1, “Thiobenzamides, process for their preparation and medicaments containing them” (Roche Diagnostics GmbH, priority 1998, dated 1999).
